Tested on: porcine jejunum tissue
Assay: GI-TRIS intestinal transport experiments
Assay type: in vitro ADME, pig

## carbetocin acetate
  increase in intestinal transport when formulated with polyethyleneimine: limited increase

— paper PMC8357188 (Nature biomedical engineering, 2020)
